Measurements as given in the supplement of paper PMC10307832.

How the values were obtained:
Experiment in all cases: relative viability (nuclei count vs DMSO), 5 days (fraction); higher = more cells survive
NCI-H460 = system: NCI-H460
Summary of the method: (§1)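 Nuclei were stained with Hoechst during a one-step fixation (final 0.05% Triton X-100, 1% formaldehyde, 1 ug/ml Hoechst) carried out 5 days after dosing, then counted on 4× images. The cells, lung cancer lines in 1536-well plates, had been dosed by pin tool the day after seeding with one drug alone or a fixed anchor-drug dose plus five library-drug doses (not always all listed) in √10 steps. Relative viability is the nuclei count in treated wells divided by that in vehicle wells, and each value is the median of duplicate plates.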

NCI-H3122 = system: NCI-H3122
Summary of the method: as §1

NCI-H1915 = system: NCI-H1915
Summary of the method: as §1

NCI-H520 = system: NCI-H520
Summary of the method: as §1

RERF-LC-KJ = system: RERF-LC-KJ
Summary of the method: as §1

LCLC-103H = system: LCLC-103H
Summary of the method: as §1

NCI-H1355 = system: NCI-H1355
Summary of the method: as §1

NCI-H661 = system: NCI-H661
Summary of the method: as §1

PC-14 = system: PC-14
Summary of the method: as §1

NCI-H1563 = system: NCI-H1563
Summary of the method: as §1

LXF-289 = system: LXF-289
Summary of the method: as §1

NCI-H1651 = system: NCI-H1651
Summary of the method: as §1

NCI-H2347 = system: NCI-H2347
Summary of the method: as §1

NCI-H1792 = system: NCI-H1792
Summary of the method: as §1

NCI-H727 = system: NCI-H727
Summary of the method: as §1

NCI-H596 = system: NCI-H596
Summary of the method: as §1

NCI-H322M = system: NCI-H322M
Summary of the method: as §1

NCI-H441 = system: NCI-H441
Summary of the method: as §1

NCI-H1755 = system: NCI-H1755
Summary of the method: as §1

COc1nc(C)cnc1NS(=O)(=O)c1cccnc1-c1ccc(-c2nnco2)cc1 [Zibotentan] + CC(C)C[C@H](NC(=O)[C@H](Cc1ccccc1)NC(=O)c1cnccn1)B(O)O [Bortezomib] (partner 0.002 µM)
relative viability (NCI-H460; first compound 0.08 µM): 1.25 | relative viability (NCI-H460; first compound 0.8 µM): 1.11 | relative viability (NCI-H460; first compound 2.53 µM): 1.2 | relative viability (NCI-H3122; first compound 0.08 µM): 1.02 | relative viability (NCI-H3122; first compound 0.253 µM): 0.979 | relative viability (NCI-H3122; first compound 0.8 µM): 0.992 | relative viability (NCI-H3122; first compound 2.53 µM): 1.03 | relative viability (NCI-H1915; first compound 0.08 µM): 1.1 | relative viability (NCI-H1915; first compound 0.253 µM): 0.986 | relative viability (NCI-H1915; first compound 0.8 µM): 1.01 | relative viability (NCI-H1915; first compound 2.53 µM): 0.965 | relative viability (NCI-H520; first compound 0.08 µM): 0.541 | relative viability (NCI-H520; first compound 0.253 µM): 0.532 | relative viability (NCI-H520; first compound 0.8 µM): 0.575 | relative viability (NCI-H520; first compound 2.53 µM): 0.821 | relative viability (RERF-LC-KJ; first compound 0.08 µM): 1.04 | relative viability (RERF-LC-KJ; first compound 0.253 µM): 1.1 | relative viability (RERF-LC-KJ; first compound 0.8 µM): 1.09 | relative viability (RERF-LC-KJ; first compound 2.53 µM): 0.998 | relative viability (LCLC-103H; first compound 0.08 µM): 1.02 | relative viability (LCLC-103H; first compound 0.253 µM): 1 | relative viability (LCLC-103H; first compound 0.8 µM): 1.27 | relative viability (LCLC-103H; first compound 2.53 µM): 1.04 | relative viability (NCI-H1355; first compound 0.08 µM): 1.2 | relative viability (NCI-H1355; first compound 0.253 µM): 1.36 | relative viability (NCI-H1355; first compound 0.8 µM): 1.05 | relative viability (NCI-H1355; first compound 2.53 µM): 1.24 | relative viability (NCI-H661; first compound 0.08 µM): 1.02 | relative viability (NCI-H661; first compound 0.253 µM): 0.656 | relative viability (NCI-H661; first compound 0.8 µM): 0.89 | relative viability (NCI-H661; first compound 2.53 µM): 0.841 | relative viability (PC-14; first compound 0.08 µM): 0.872 | relative viability (PC-14; first compound 0.253 µM): 0.922 | relative viability (PC-14; first compound 0.8 µM): 0.897 | relative viability (PC-14; first compound 2.53 µM): 0.861 | relative viability (NCI-H1563; first compound 0.08 µM): 0.932 | relative viability (NCI-H1563; first compound 0.253 µM): 0.648 | relative viability (NCI-H1563; first compound 0.8 µM): 0.881 | relative viability (NCI-H1563; first compound 2.53 µM): 0.905 | relative viability (LXF-289; first compound 0.08 µM): 1.05 | relative viability (LXF-289; first compound 0.253 µM): 0.993 | relative viability (LXF-289; first compound 0.8 µM): 1.05 | relative viability (LXF-289; first compound 2.53 µM): 0.989 | relative viability (NCI-H1651; first compound 0.08 µM): 0.981 | relative viability (NCI-H1651; first compound 0.253 µM): 0.871 | relative viability (NCI-H1651; first compound 0.8 µM): 0.902 | relative viability (NCI-H1651; first compound 2.53 µM): 0.972 | relative viability (NCI-H2347; first compound 0.08 µM): 1.08 | relative viability (NCI-H2347; first compound 0.253 µM): 0.871 | relative viability (NCI-H2347; first compound 0.8 µM): 1.04 | relative viability (NCI-H2347; first compound 2.53 µM): 0.734 | relative viability (NCI-H1792; first compound 0.08 µM): 0.912 | relative viability (NCI-H1792; first compound 0.253 µM): 0.833 | relative viability (NCI-H1792; first compound 0.8 µM): 0.921 | relative viability (NCI-H1792; first compound 2.53 µM): 0.935 | relative viability (NCI-H727; first compound 0.08 µM): 0.745 | relative viability (NCI-H727; first compound 0.253 µM): 0.768 | relative viability (NCI-H727; first compound 0.8 µM): 0.966 | relative viability (NCI-H727; first compound 2.53 µM): 0.805 | relative viability (NCI-H596; first compound 0.08 µM): 0.966 | relative viability (NCI-H596; first compound 0.253 µM): 0.935 | relative viability (NCI-H596; first compound 0.8 µM): 1.06 | relative viability (NCI-H596; first compound 2.53 µM): 1.31 | relative viability (NCI-H322M; first compound 0.08 µM): 1.05 | relative viability (NCI-H322M; first compound 0.253 µM): 1.22 | relative viability (NCI-H322M; first compound 0.8 µM): 1.18 | relative viability (NCI-H322M; first compound 2.53 µM): 1.34 | relative viability (NCI-H441; first compound 0.08 µM): 0.846 | relative viability (NCI-H441; first compound 0.8 µM): 0.463 | relative viability (NCI-H441; first compound 2.53 µM): 0.539 | relative viability (NCI-H1755; first compound 0.08 µM): 0.945 | relative viability (NCI-H1755; first compound 0.253 µM): 0.952 | relative viability (NCI-H1755; first compound 0.8 µM): 0.968 | relative viability (NCI-H1755; first compound 2.53 µM): 0.97
